In patent US11155851B2, “Compounds and methods relating to lysosomal storage disorders” (University of Washington through its Center of …, priority 2013, dated 2021):

What was measured:
[1] = biological target: T1, acid-β-glucocerebrosidase (ABG) (Homo sapiens, UniProt P04062); experiment: Detection of enzyme activity in dried blood spots by mass spectrometry (ABG substrate); type: biochemical; conditions: FIG. 6, dried blood disk, substrate 500 μmol/L, 15 to 24 hours at 37° Celsius
T1 construct: from tissue; host or cells: dried blood spots from adult human venous blood
T1 sequence (P04062 40-536): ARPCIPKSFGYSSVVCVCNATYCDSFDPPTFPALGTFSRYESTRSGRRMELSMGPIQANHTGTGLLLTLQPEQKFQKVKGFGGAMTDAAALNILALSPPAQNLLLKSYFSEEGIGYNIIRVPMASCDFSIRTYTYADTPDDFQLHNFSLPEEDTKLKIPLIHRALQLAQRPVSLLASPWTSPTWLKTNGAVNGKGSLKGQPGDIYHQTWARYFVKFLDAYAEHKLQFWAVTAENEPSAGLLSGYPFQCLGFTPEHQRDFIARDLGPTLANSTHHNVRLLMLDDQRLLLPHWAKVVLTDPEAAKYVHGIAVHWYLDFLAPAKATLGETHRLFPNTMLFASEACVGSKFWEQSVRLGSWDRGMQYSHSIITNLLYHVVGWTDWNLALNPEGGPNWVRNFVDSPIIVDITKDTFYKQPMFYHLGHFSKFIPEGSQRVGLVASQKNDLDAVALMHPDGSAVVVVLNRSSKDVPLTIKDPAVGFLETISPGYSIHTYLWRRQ
Experimental: The substrates of Compounds 1 and 7 are used to detect the presence of acid-β-glucocerebrosidase (ABG) and galactocerebroside-β-galactosidase (GALC) respectively. Blood is obtained by venipuncture from consenting adult humans and blotted on filter paper. For each sample, a disk of 3 mm diameter is punched from the areas of dried blood into a well of a 96-well microtiter plate. The blood disk is then incubated directly with an assay solution containing substrates at a final concentration of 500 μmol/L and corresponding internal standards at a final concentration of 5 μmol/L. To the assay solution, a final concentration of 0.5 mol/L sodium acetate buffer with sodium taurocholate is also added. The assay mixture containing the blood disk is incubated for 15 to 24 hours at 37° Celsius with orbital shaking (150 rpm) in a thermostatic air shaker. After the incubation period, an aliquot of pure methanol is added to each tube or well to terminate the enzymatic reaction. Before going into the mass spectrometer, the incubated reaction mixture is diluted with pure methanol. For the mass spectrometry analysis, the electrospray source is operated in positive mode, and the ions are detected in parent-ion scan mode. The amount of enzymatic product is calculated from the ion abundance ratio of the product to the internal standard minus that of a blank.

[2] = biological target: T1, acid-β-glucocerebrosidase (ABG); experiment: Simultaneous detection of multiple enzyme activity in dried blood spots by MS/MS (ABG); type: biochemical; conditions: Compounds 1 and 7 used simultaneously, substrates 100 μmol/L, dried blood disk, 15 to 24 hours at 37° Celsius
Experimental: The substrates of Compounds 1 and 7 are used simultaneously to detect the presence of acid-β-glucocerebrosidase (ABG) and galactocerebroside-β-galactosidase (GALC) respectively. Blood is obtained by venipuncture from consenting adult humans and blotted on filter paper. For each sample, a disk of 3 mm diameter is punched from the areas of dried blood into a well of a 96-well microtiter plate. The blood disk is then incubated directly with an assay solution containing substrates at a final concentration of 100 μmol/L and corresponding internal standards at a final concentration of 1 μmol/L. To the assay solution, a final concentration of 0.5 mol/L sodium acetate with sodium taurocholate buffer is also added (30 μl final assay volume). The assay mixture containing the blood disk is incubated for 15 to 24 hours at 37° Celsius with orbital shaking (150 rpm) in a thermostatic air shaker. After the incubation period, a 100 μl aliquot of 50:50 methanol/ethyl acetate is added to each tube or well to terminate the enzymatic reaction. The reaction is then supplemented with 400 μl HPLC grade ethyl acetate and 200 μl water. […] For mass spectrometry analysis, the electrospray source is operated in positive mode, and the ions are detected in parent-ion scan mode. The amount of enzymatic product is calculated from the ion abundance ratio of the product to the internal standard minus that of a blank.

CCCCCCCCCCCCC/C=C/C(O)C(CO[C@@H]1OC(CO)[C@@H](O)C(O)C1O)NC(=O)CCCC (some centres unmarked) [Compound 1]
improvement in product detection over a similar compound substituting the C5 amido for a C12 amido [1]: 2 fold | detection of ABG (enzymatic product by MS/MS) [2]: Detection of both ABG and GALC is achieved
